Test results reported in patent US10428082B2, “Triazole derivatives of melampomagnolide B and methods of use thereof” (BioVentures, LLC, priority 2016, dated 2019).
Where two headings read alike, the source gives them in different places.

What was measured:
[1] = system: M9 ENL1 cell line; experiment: Anti-leukemic activity, Annexin V/7-AAD flow cytometry; format: cell-based
Experimental: (§1) The newly synthesized triazole derivatives of melampomagnolide B were screened for anti-leukemic activity against M9 ENL1 and primary AML cell lines; the latter were obtained with informed consent from human patients. Evaluations were performed after 24 h of drug exposure using flow cytometric analysis by labeling with Annexin V and 7-aminoactinomycin D (7-AAD) to delineate apoptotic cell populations. In all experiments PTL was included as a reference control.

[2] = system: primary AML cell line AML1; experiment: as above; format: cell-based, human; details: 24 h of drug exposure, read-out: AML#1 (EC50)
Experimental: as §1

[3] = system: primary AML cell line AML2; experiment: as above; format: cell-based, human; details: 24 h of drug exposure, read-out: AML#2 (EC50)
Experimental: as §1

[4] = Water solubility; format: physicochemical; details: fumarate salt vs free base
[5] = 24 h of drug exposure, read-out: M9ENL1 (EC50)
[6] = M9-ENL1, 24 h, 24 h of drug exposure, read-out: M9ENL1 (EC50)

SMILES | EC50 [1, 5] [nM] | EC50 [1, 6] [nM] | EC50 ([2]; Homo sapiens, AML1, 24 h) [µM] | other results
CN(C)CC1C(=O)O[C@H]2[C@H]1CC/C(Cn1cc(-c3cc(C(F)(F)F)cc(C(F)(F)F)c3)nn1)=C\CC[C@@]1(C)O[C@@H]21 (stereo partly drawn) [JVM 4-29C] | 1700 |  |  | EC50 [2]: 1 µM; EC50 [3]: 2.9 µM; water solubility compared with free base form [4]: more water soluble than the free base form
C=C1C(=O)O[C@H]2[C@H]1CC/C(Cn1cc(-c3ccccn3)nn1)=C\CC[C@@]1(C)O[C@@H]21 [JVM 4-47, (1aR,7aS,10aS,10bS,E)-1a-Methyl-8-methylene-5-((4-(pyridin-2-yl)-1H-1,2,3-triazol-1-yl)methyl)-2,3,6,7,7a,8,10a,10b-octahydrooxireno[2′,3′:9,10]cyclodeca[1,2-b]furan-9(1aH)-one] |  | 3200 | 7.9 | 
C=C1C(=O)O[C@H]2[C@H]1CC/C(Cn1cc(CO)nn1)=C\CC[C@@]1(C)O[C@@H]21 [JVM 3-75] | 38000 |  |  | 
CN(C)CC1C(=O)O[C@H]2[C@H]1CC/C(Cn1cc(-c3cc(C(F)(F)F)cc(C(F)(F)F)c3)nn1)=C\CC[C@@]1(C)O[C@@H]21 (stereo partly drawn) [JVM 4-29B] |  | 1900 | 1.1 | EC50 ([3]; Homo sapiens, 24 h): 2.3 µM
C/C1=C\CC[C@@]2(C)O[C@@H]2[C@H]2OC(=O)[C@H](CN(C)C)[C@@H]2CC1 [DMAPT, reference compound] | 6000 |  |  | EC50 [2]: 14.7 µM; EC50 [3]: 11.3 µM
C=C1C(=O)O[C@H]2[C@H]1CC/C(Cn1cc(COC(=O)c3ccccc3)nn1)=C\CC[C@@]1(C)O[C@@H]21 [JVM 3-76] | 11000 |  |  | 
C=C1C(=O)O[C@H]2[C@H]1CC/C(Cn1cc(CCCCl)nn1)=C\CC[C@@]1(C)O[C@@H]21 [JVM 4-31] | 3800 |  |  | 
C=C1C(=O)O[C@@H]2[C@H]3O[C@]3(C)CC/C=C(\CO)CC[C@@H]12 [MMB, Melampomagnolide B] | 16000 |  |  | EC50 [2]: 20.5 µM; EC50 [3]: 24.3 µM
C=C1C(=O)O[C@H]2[C@H]1CC/C(Cn1cc(-c3cc(F)cc(F)c3)nn1)=C\CC[C@@]1(C)O[C@@H]21 [JVM 4-48, (1aR,7aS,10aS,10bS,E)-5-((4-(3,5-Difluorophenyl)-1H-1,2,3-triazol-1-yl)methyl)-1a-methyl-8-methylene-2,3,6,7,7a,8,10a,10b-oetahydrooxireno[2′,3′:9,10]cyclodeca[1,2-b]furan-9(1aH)-one] |  | 1500 | 2.4 | 
C#Cc1cccc(-c2cn(C/C3=C/CC[C@@]4(C)O[C@H]4[C@H]4OC(=O)C(=C)[C@@H]4CC3)nn2)c1 [JVM 4-41, (1aR,7aS,10aS,10bS,E)-5-((4-(3-Ethynylphenyl)-1H-1,2,3-triazol-1-yl)methyl)-1a-methyl-8-methylene-2,3,6,7,7a,8,10a,10b-octahydrooxireno[2′,3′:9,10]cyclodeca[1,2-b]furan-9(1aH)-one] |  | 200 |  | EC50 ([1]; M9-ENL1, text value in nM, read-out: EC50 against the M9 ENL cell line): 200 nM; fold more potent than parthenolide (PTL) ([1]; M9 ENL1 cells): 26 fold
C=C1C(=O)O[C@H]2[C@H]1CC/C(Cn1cc(-c3ccc(F)c(C)c3)nn1)=C\CC[C@@]1(C)O[C@@H]21 [JVM 4-27, (1aR,7aS,10aS,10bS,E)-5-((4-(4-Fluoro-3-methylphenyl)-1H-1,2,3-triazol-1-yl)methyl)-1a-methyl-8-methylene-2,3,6,7,7a,8,10a,10b-octahydrooxireno[2′,3′:9,10]cyclodeca[1,2-b]furan-9(1aH)-one] |  | 1200 | 1.3 | EC50 ([3]; Homo sapiens, 24 h): 1.2 µM
C=C1C(=O)O[C@H]2[C@H]1CC/C(Cn1cc(CCCC)nn1)=C\CC[C@@]1(C)O[C@@H]21 [JVM 4-20] | 4300 |  |  | 
